ChEMBL document CHEMBL3885861, “Open TG-GATES”

Organism: Rattus norvegicus
Assay: Open TG-GATES - Regimen: Single
Assay type: toxicity, organism-based, Sprague-Dawley
Design: regimen Single, gender Male, age 6 weeks
Details: in vivo, po, route gavage; for gamma-GTP / ALP / AST / BUN / CRE / Ca / DBIL / GLC / IP / K / LDH / Na / PL / RALB / TBIL / TC / TG / TP / ALT: tissue Plasma; for APTT / Bas / Eos / Fbg / Hb / Ht / MCH / MCHC / MCV / Mono / Neu / PT / Plat / RBC / Ret / WBC / Lym: tissue Blood; for KIDNEY_L / KIDNEY_R / KIDNEY_TOTAL: tissue Kidney; for LIVER: tissue Liver
[1] = 300 mg/kg, 3 h, dose level Middle
[2] = 300 mg/kg, 6 h, dose level Middle
[3] = 300 mg/kg, 9 h, dose level Middle
[4] = 300 mg/kg, 24 h, dose level Middle
[5] = 1000 mg/kg, 3 h, dose level High
[6] = 1000 mg/kg, 6 h, dose level High
[7] = 1000 mg/kg, 9 h, dose level High
[8] = 1000 mg/kg, 24 h, dose level High

## O=C(O)c1cn(C2CC2)c2cc(N3CCNCC3)c(F)cc2c1=O [CIPROFLOXACIN]
100 mg/kg, 24 h, dose level Low
  gamma-GTP: 1.4 IU/L
[1]
  TERMINAL_BW: 184.9 g
  APTT: 16.7 s
  Bas: 0%
  Eos: 0.4%
  Fbg: 204.6 mg/dL
  Hb: 13.2 g/dL
  Ht: 39.5%
  MCH: 22.8 pg
  MCHC: 33.4%
  MCV: 68.2 fL
  Mono: 6%
  Neu: 14.2%
  PT: 12.4 s
  Plat: 99.2 x10_4/uL
  RBC: 579 x10_4/ul
  Ret: 11.6%
  WBC: 102.6 x10_2/uL
  KIDNEY_L: 0.8 g
  KIDNEY_R: 0.9 g
  KIDNEY_TOTAL: 1.7 g
  LIVER: 9 g
  ALP: 905.6 IU/L
  AST: 68.2 IU/L
  BUN: 11.6 mg/dL
  CRE: 0.5 mg/dL
  Ca: 11 mg/dL
  DBIL: 0.006 mg/dL
  GLC: 183.6 mg/dL
  IP: 9.9 mg/dL
  K: 4.7 meq/L
  LDH: 78.6 IU/L
  Na: 138.8 meq/L
  PL: 145.6 mg/dL
  RALB: 3.9 g/dL
  TBIL: 0.4 mg/dL
  TC: 84 mg/dL
  TG: 43.6 mg/dL
  TP: 5.5 g/dL
  gamma-GTP: 1 IU/L
[2]
  TERMINAL_BW: 179.8 g
  Bas: 0%
  Eos: 1%
  Fbg: 208.2 mg/dL
  Hb: 12.8 g/dL
  MCH: 22.1 pg
  MCHC: 33%
  MCV: 67.1 fL
  Mono: 8%
  PT: 12.4 s
  Plat: 101.5 x10_4/uL
  RBC: 579.8 x10_4/ul
  Ret: 10.5%
  WBC: 103.6 x10_2/uL
  KIDNEY_L: 0.9 g
  KIDNEY_R: 0.8 g
  KIDNEY_TOTAL: 1.7 g
  LIVER: 8.1 g
  ALP: 804.2 IU/L
  ALT: 35.2 IU/L
  BUN: 11 mg/dL
  CRE: 0.5 mg/dL
  Ca: 11.6 mg/dL
  DBIL: 0.038 mg/dL
  GLC: 175.2 mg/dL
  IP: 10.3 mg/dL
  K: 5.1 meq/L
  LDH: 82.2 IU/L
  Na: 138 meq/L
  PL: 131.8 mg/dL
  RALB: 3.8 g/dL
  TBIL: 0.4 mg/dL
  TC: 82.2 mg/dL
  TG: 36.2 mg/dL
  TP: 5.6 g/dL
  gamma-GTP: 1.4 IU/L
[3]
  TERMINAL_BW: 176.2 g
  APTT: 16.9 s
  Bas: 0%
  Eos: 0.8%
  Fbg: 220.4 mg/dL
  Hb: 13.2 g/dL
  Ht: 39.7%
  Lym: 81%
  MCV: 67.5 fL
  Mono: 5.2%
  Neu: 13.4%
  PT: 11.5 s
  Plat: 101.9 x10_4/uL
  RBC: 588.6 x10_4/ul
  Ret: 9.9%
  WBC: 105.6 x10_2/uL
  KIDNEY_L: 0.8 g
  KIDNEY_R: 0.8 g
  KIDNEY_TOTAL: 1.7 g
  LIVER: 7.2 g
  ALP: 927.2 IU/L
  ALT: 33 IU/L
  AST: 67.4 IU/L
  BUN: 10.2 mg/dL
  CRE: 0.5 mg/dL
  DBIL: 0.082 mg/dL
  GLC: 191.4 mg/dL
  IP: 10.9 mg/dL
  K: 5 meq/L
  LDH: 79.8 IU/L
  Na: 139.2 meq/L
  PL: 120.4 mg/dL
  RALB: 3.9 g/dL
  TBIL: 0.3 mg/dL
  TC: 72.8 mg/dL
  TP: 5.6 g/dL
  gamma-GTP: 1.4 IU/L
[4]
  TERMINAL_BW: 194.3 g
  Bas: 0%
  Eos: 1%
  Fbg: 214.4 mg/dL
  Hb: 12.9 g/dL
  Lym: 77.2%
  MCH: 21.4 pg
  MCHC: 33.1%
  MCV: 64.8 fL
  Mono: 7%
  PT: 12.4 s
  Plat: 106.2 x10_4/uL
  RBC: 600.4 x10_4/ul
  Ret: 9.4%
  WBC: 96.1 x10_2/uL
  KIDNEY_L: 0.9 g
  KIDNEY_R: 0.9 g
  KIDNEY_TOTAL: 1.8 g
  LIVER: 8.5 g
  ALP: 843 IU/L
  ALT: 37.8 IU/L
  AST: 71.8 IU/L
  BUN: 17.6 mg/dL
  CRE: 0.5 mg/dL
  Ca: 11.3 mg/dL
  DBIL: 0.058 mg/dL
  GLC: 193 mg/dL
  IP: 9.2 mg/dL
  K: 4.7 meq/L
  LDH: 93.4 IU/L
  Na: 140.2 meq/L
  PL: 153.2 mg/dL
  RALB: 3.9 g/dL
  TBIL: 0.3 mg/dL
  TC: 95.4 mg/dL
  TG: 49 mg/dL
  TP: 5.9 g/dL
  gamma-GTP: 1.8 IU/L
[5]
  TERMINAL_BW: 182 g
  APTT: 17 s
  Bas: 0%
  Eos: 0.4%
  Fbg: 215.6 mg/dL
  Hb: 12.9 g/dL
  Lym: 80.4%
  MCH: 21.7 pg
  MCHC: 33.1%
  MCV: 65.5 fL
  Mono: 6.6%
  Neu: 12.6%
  PT: 12.6 s
  Plat: 101.8 x10_4/uL
  RBC: 592.8 x10_4/ul
  Ret: 11.2%
  WBC: 101.3 x10_2/uL
  KIDNEY_L: 0.8 g
  KIDNEY_R: 0.8 g
  KIDNEY_TOTAL: 1.7 g
  LIVER: 8.6 g
  ALP: 791 IU/L
  ALT: 36.8 IU/L
  CRE: 0.5 mg/dL
  DBIL: 0.022 mg/dL
  GLC: 191.2 mg/dL
  IP: 10.3 mg/dL
  K: 4.7 meq/L
  LDH: 132.2 IU/L
  Na: 139 meq/L
  PL: 141 mg/dL
  RALB: 3.8 g/dL
  TBIL: 0.3 mg/dL
  TC: 81.2 mg/dL
  TG: 47 mg/dL
  TP: 5.6 g/dL
  gamma-GTP: 1.4 IU/L
[6]
  TERMINAL_BW: 179.7 g
  Bas: 0%
  Eos: 0.8%
  Fbg: 210.4 mg/dL
  Hb: 12.9 g/dL
  Ht: 39.1%
  Lym: 78.2%
  MCHC: 32.9%
  MCV: 67.5 fL
  Mono: 7.6%
  Neu: 13.8%
  PT: 12.5 s
  Plat: 100.8 x10_4/uL
  RBC: 579.8 x10_4/ul
  Ret: 10%
  WBC: 97.6 x10_2/uL
  KIDNEY_L: 0.8 g
  KIDNEY_R: 0.8 g
  KIDNEY_TOTAL: 1.7 g
  LIVER: 7.9 g
  ALP: 904.2 IU/L
  AST: 69.4 IU/L
  BUN: 10 mg/dL
  CRE: 0.5 mg/dL
  Ca: 11.4 mg/dL
  DBIL: 0.052 mg/dL
  GLC: 185.8 mg/dL
  IP: 10.8 mg/dL
  K: 5.3 meq/L
  LDH: 140.4 IU/L
  Na: 138 meq/L
  PL: 137.2 mg/dL
  RALB: 3.7 g/dL
  TBIL: 0.3 mg/dL
  TC: 79.8 mg/dL
  TP: 5.5 g/dL
  gamma-GTP: 1 IU/L
[7]
  TERMINAL_BW: 176.2 g
  APTT: 16.9 s
  Bas: 0%
  Eos: 0.8%
  Fbg: 223 mg/dL
  Hb: 13.2 g/dL
  Ht: 39.9%
  Lym: 83.6%
  MCH: 22 pg
  MCHC: 33%
  MCV: 66.5 fL
  Mono: 5.8%
  Neu: 10%
  PT: 11.4 s
  Plat: 104.6 x10_4/uL
  RBC: 601 x10_4/ul
  WBC: 94.6 x10_2/uL
  KIDNEY_L: 0.8 g
  KIDNEY_R: 0.9 g
  KIDNEY_TOTAL: 1.7 g
  LIVER: 7.3 g
  ALP: 763.8 IU/L
  AST: 71.4 IU/L
  BUN: 11 mg/dL
  CRE: 0.5 mg/dL
  Ca: 10.8 mg/dL
  DBIL: 0.08 mg/dL
  GLC: 192.4 mg/dL
  IP: 11 mg/dL
  K: 5.2 meq/L
  LDH: 168.2 IU/L
  Na: 139 meq/L
  PL: 131.4 mg/dL
  RALB: 3.8 g/dL
  TBIL: 0.3 mg/dL
  TC: 78 mg/dL
  TG: 22.2 mg/dL
  TP: 5.6 g/dL
  gamma-GTP: 1.4 IU/L
[8]
  TERMINAL_BW: 193.6 g
  APTT: 15.4 s
  Bas: 0%
  Eos: 0.8%
  Fbg: 219.4 mg/dL
  Hb: 13.5 g/dL
  Ht: 40.1%
  Lym: 80%
  MCHC: 33.6%
  Mono: 6.4%
  Neu: 12.6%
  PT: 12.4 s
  Plat: 106.5 x10_4/uL
  RBC: 600.2 x10_4/ul
  Ret: 9.1%
  WBC: 110.9 x10_2/uL
  KIDNEY_L: 0.8 g
  KIDNEY_R: 0.9 g
  KIDNEY_TOTAL: 1.7 g
  LIVER: 8.7 g
  ALP: 1158.6 IU/L
  ALT: 49 IU/L
  BUN: 19.2 mg/dL
  CRE: 0.5 mg/dL
  Ca: 11.3 mg/dL
  DBIL: 0.028 mg/dL
  GLC: 183.8 mg/dL
  IP: 9.9 mg/dL
  K: 4.6 meq/L
  LDH: 177.2 IU/L
  Na: 140 meq/L
  PL: 146.4 mg/dL
  RALB: 4 g/dL
  TBIL: 0.2 mg/dL
  TC: 84 mg/dL
  TG: 51.2 mg/dL
  TP: 6 g/dL
  gamma-GTP: 1.2 IU/L
